Measurements taken from ChEMBL document CHEMBL4011590, “Structure-activity relationship studies on 3,5-dinitrophenyl tetrazoles as antitubercular agents” (Eur J Med Chem, 2017).
Converted amounts (≈) assume the structure as drawn.

Assays:
[1] = tested on: Mycobacterium tuberculosis; test: Antimycobacterial activity against Mycobacterium tuberculosis H37Rv CNCTC My 331/88 after 14 days by micromethod; assay type: functional; conditions: H37Rv CNCTC My 331/88, 336 h
[2] = tested on: Mycobacterium tuberculosis; test: Antimycobacterial activity against Mycobacterium tuberculosis H37Rv CNCTC My 331/88 after 21 days by micromethod; assay type: functional; conditions: H37Rv CNCTC My 331/88, 504 h
Mycobacterium avium [3] = test: Antimycobacterial activity against Mycobacterium avium CNCTC My 330/80 after 14 days by micromethod; assay type: functional; conditions: CNCTC My 330/80, 336 h
Mycobacterium avium [4] = test: Antimycobacterial activity against Mycobacterium avium CNCTC My 330/80 after 21 days by micromethod; assay type: functional; conditions: CNCTC My 330/80, 504 h
Mycobacterium kansasii [5] = test: Antimycobacterial activity against Mycobacterium kansasii CNCTC My 235/80 after 7 days by micromethod; assay type: functional; conditions: CNCTC My 235/80, 168 h
Mycobacterium kansasii [6] = test: Antimycobacterial activity against Mycobacterium kansasii CNCTC My 235/80 after 14 days by micromethod; assay type: functional; conditions: CNCTC My 235/80, 336 h
Mycobacterium kansasii [7] = test: Antimycobacterial activity against Mycobacterium kansasii CNCTC My 235/80 after 21 days by micromethod; assay type: functional; conditions: CNCTC My 235/80, 504 h
Mycobacterium kansasii [8] = test: Antimycobacterial activity against Mycobacterium kansasii isolate 6509/96 after 7 days by micromethod; assay type: functional; conditions: isolate 6509/96, 168 h
Mycobacterium kansasii [9] = test: Antimycobacterial activity against Mycobacterium kansasii isolate 6509/96 after 14 days by micromethod; assay type: functional; conditions: isolate 6509/96, 336 h
Mycobacterium kansasii [10] = test: Antimycobacterial activity against Mycobacterium kansasii isolate 6509/96 after 21 days by micromethod; assay type: functional; conditions: isolate 6509/96, 504 h
CHO-K1 = test: Cytotoxicity against CHOK1 cells after 24 hrs by MTT assay; assay type: cell-based; conditions: Cricetulus griseus, CHO-K1, 24 h

Structure (SMILES) | MIC99 [1] | MIC99 [2] | MIC99 (Mycobacterium avium [3]) | MIC99 (Mycobacterium avium [4]) | MIC99 (Mycobacterium kansasii [5]) | MIC99 (Mycobacterium kansasii [6]) | MIC99 (Mycobacterium kansasii [7]) | MIC99 (Mycobacterium kansasii [8]) | MIC99 (Mycobacterium kansasii [9]) | MIC99 (Mycobacterium kansasii [10]) | IC50 (CHO-K1)
O=[N+]([O-])c1cc(Sc2nnnn2Cc2ccccc2)cc([N+](=O)[O-])c1 | 1 µM (≈ 0.358 µg/mL) | 2 µM (≈ 0.717 µg/mL) | 32 µM (≈ 11.5 µg/mL) | 62.5 µM (≈ 22.4 µg/mL) | 8 µM (≈ 2.87 µg/mL) | 8 µM (≈ 2.87 µg/mL) | 16 µM (≈ 5.73 µg/mL) | 2 µM (≈ 0.717 µg/mL) | 4 µM (≈ 1.43 µg/mL) | 4 µM (≈ 1.43 µg/mL) | 127 µM
O=[N+]([O-])c1cc(-c2nnn(Cc3ccccc3)n2)cc([N+](=O)[O-])c1 | 0.5 µM (≈ 0.163 µg/mL) | 1 µM (≈ 0.326 µg/mL) | 8 µM (≈ 2.61 µg/mL) | 8 µM (≈ 2.61 µg/mL) | 1 µM (≈ 0.326 µg/mL) | 2 µM (≈ 0.653 µg/mL) | 2 µM (≈ 0.653 µg/mL) | 1 µM (≈ 0.326 µg/mL) | 2 µM (≈ 0.653 µg/mL) | 2 µM (≈ 0.653 µg/mL) | 150 µM
O=[N+]([O-])c1cc(-c2nnn(CCCSc3nnnn3-c3ccc(Br)cc3)n2)cc([N+](=O)[O-])c1 | 0.5 µM (≈ 0.267 µg/mL) | 0.5 µM (≈ 0.267 µg/mL) | 1 µM (≈ 0.533 µg/mL) | 2 µM (≈ 1.07 µg/mL) | 0.5 µM (≈ 0.267 µg/mL) | 1 µM (≈ 0.533 µg/mL) | 2 µM (≈ 1.07 µg/mL) | 0.5 µM (≈ 0.267 µg/mL) | 1 µM (≈ 0.533 µg/mL) | 1 µM (≈ 0.533 µg/mL) | –
Cn1nnc(-c2cc([N+](=O)[O-])cc([N+](=O)[O-])c2)n1 | 32 µM (≈ 8.01 µg/mL) | 32 µM (≈ 8.01 µg/mL) | 62.5 µM (≈ 15.6 µg/mL) | 125 µM (≈ 31.3 µg/mL) | 62.5 µM (≈ 15.6 µg/mL) | 125 µM (≈ 31.3 µg/mL) | 125 µM (≈ 31.3 µg/mL) | 62.5 µM (≈ 15.6 µg/mL) | 62.5 µM (≈ 15.6 µg/mL) | 62.5 µM (≈ 15.6 µg/mL) | –
O=[N+]([O-])c1cc(-c2nnn(CCCCSc3nnnn3-c3ccc(Br)cc3)n2)cc([N+](=O)[O-])c1 | 0.5 µM (≈ 0.274 µg/mL) | 0.5 µM (≈ 0.274 µg/mL) | 1 µM (≈ 0.547 µg/mL) | 1 µM (≈ 0.547 µg/mL) | 0.5 µM (≈ 0.274 µg/mL) | 1 µM (≈ 0.547 µg/mL) | 1 µM (≈ 0.547 µg/mL) | 1 µM (≈ 0.547 µg/mL) | 1 µM (≈ 0.547 µg/mL) | 2 µM (≈ 1.09 µg/mL) | –
COc1ccccc1-n1nnnc1Sc1cc([N+](=O)[O-])cc([N+](=O)[O-])c1 | 4 µM (≈ 1.5 µg/mL) | 8 µM (≈ 2.99 µg/mL) | 16 µM (≈ 5.99 µg/mL) | 32 µM (≈ 12 µg/mL) | 16 µM (≈ 5.99 µg/mL) | 32 µM (≈ 12 µg/mL) | 62.5 µM (≈ 23.4 µg/mL) | 8 µM (≈ 2.99 µg/mL) | 32 µM (≈ 12 µg/mL) | 32 µM (≈ 12 µg/mL) | –
O=[N+]([O-])c1cc(-c2nnn(Cc3ccc(Cl)c(Cl)c3)n2)cc([N+](=O)[O-])c1 | 0.125 µM (≈ 0.0494 µg/mL) | 0.125 µM (≈ 0.0494 µg/mL) | 4 µM (≈ 1.58 µg/mL) | 8 µM (≈ 3.16 µg/mL) | 0.25 µM (≈ 0.0988 µg/mL) | 0.5 µM (≈ 0.198 µg/mL) | 1 µM (≈ 0.395 µg/mL) | 0.25 µM (≈ 0.0988 µg/mL) | 0.5 µM (≈ 0.198 µg/mL) | 0.5 µM (≈ 0.198 µg/mL) | 37 µM
COc1ccccc1-n1nnnc1SCn1nnc(-c2cc([N+](=O)[O-])cc([N+](=O)[O-])c2)n1 | 0.25 µM (≈ 0.114 µg/mL) | 0.25 µM (≈ 0.114 µg/mL) | 32 µM (≈ 14.6 µg/mL) | 32 µM (≈ 14.6 µg/mL) | 32 µM (≈ 14.6 µg/mL) | 32 µM (≈ 14.6 µg/mL) | 32 µM (≈ 14.6 µg/mL) | 32 µM (≈ 14.6 µg/mL) | 32 µM (≈ 14.6 µg/mL) | 32 µM (≈ 14.6 µg/mL) | –
COc1ccc(-n2nnnc2SCn2nnc(-c3cc([N+](=O)[O-])cc([N+](=O)[O-])c3)n2)cc1 | 0.25 µM (≈ 0.114 µg/mL) | 0.5 µM (≈ 0.228 µg/mL) | 1 µM (≈ 0.456 µg/mL) | 1 µM (≈ 0.456 µg/mL) | 0.5 µM (≈ 0.228 µg/mL) | 1 µM (≈ 0.456 µg/mL) | 2 µM (≈ 0.913 µg/mL) | 0.25 µM (≈ 0.114 µg/mL) | 0.5 µM (≈ 0.228 µg/mL) | 1 µM (≈ 0.456 µg/mL) | –
O=[N+]([O-])c1cc(-c2nnn(CCCSc3nnnn3-c3ccc(Cl)c(Cl)c3)n2)cc([N+](=O)[O-])c1 | 0.25 µM (≈ 0.131 µg/mL) | 0.25 µM (≈ 0.131 µg/mL) | 4 µM (≈ 2.09 µg/mL) | 8 µM (≈ 4.19 µg/mL) | 0.25 µM (≈ 0.131 µg/mL) | 0.5 µM (≈ 0.262 µg/mL) | 0.5 µM (≈ 0.262 µg/mL) | 0.25 µM (≈ 0.131 µg/mL) | 0.5 µM (≈ 0.262 µg/mL) | 0.5 µM (≈ 0.262 µg/mL) | –
O=[N+]([O-])c1cc(Sc2nnnn2C2CCCCC2)cc([N+](=O)[O-])c1 | 1 µM (≈ 0.35 µg/mL) | 1 µM (≈ 0.35 µg/mL) | 32 µM (≈ 11.2 µg/mL) | 32 µM (≈ 11.2 µg/mL) | 1 µM (≈ 0.35 µg/mL) | 1 µM (≈ 0.35 µg/mL) | 1 µM (≈ 0.35 µg/mL) | 1 µM (≈ 0.35 µg/mL) | 1 µM (≈ 0.35 µg/mL) | 1 µM (≈ 0.35 µg/mL) | 153 µM
O=[N+]([O-])c1cc(-c2nnn(CSc3nnnn3C3CCCCC3)n2)cc([N+](=O)[O-])c1 | 0.03 µM (≈ 0.013 µg/mL) | 0.03 µM (≈ 0.013 µg/mL) | 8 µM (≈ 3.46 µg/mL) | 16 µM (≈ 6.92 µg/mL) | 0.06 µM (≈ 0.0259 µg/mL) | 0.06 µM (≈ 0.0259 µg/mL) | 0.06 µM (≈ 0.0259 µg/mL) | 0.03 µM (≈ 0.013 µg/mL) | 0.03 µM (≈ 0.013 µg/mL) | 0.03 µM (≈ 0.013 µg/mL) | 140 µM
COc1ccc(-n2nnnc2Sc2cc([N+](=O)[O-])cc([N+](=O)[O-])c2)cc1 | 1 µM (≈ 0.374 µg/mL) | 1 µM (≈ 0.374 µg/mL) | 8 µM (≈ 2.99 µg/mL) | 16 µM (≈ 5.99 µg/mL) | 2 µM (≈ 0.749 µg/mL) | 4 µM (≈ 1.5 µg/mL) | 4 µM (≈ 1.5 µg/mL) | 2 µM (≈ 0.749 µg/mL) | 4 µM (≈ 1.5 µg/mL) | 4 µM (≈ 1.5 µg/mL) | –
O=[N+]([O-])c1cc(-c2nnn(CCSc3nnnn3-c3ccc(Cl)c(Cl)c3)n2)cc([N+](=O)[O-])c1 | 0.25 µM (≈ 0.127 µg/mL) | 0.25 µM (≈ 0.127 µg/mL) | 2 µM (≈ 1.02 µg/mL) | 4 µM (≈ 2.04 µg/mL) | 0.25 µM (≈ 0.127 µg/mL) | 0.5 µM (≈ 0.255 µg/mL) | 1 µM (≈ 0.509 µg/mL) | 0.5 µM (≈ 0.255 µg/mL) | 1 µM (≈ 0.509 µg/mL) | 1 µM (≈ 0.509 µg/mL) | –
